# Columns and labels:
# [1] = Stability of aqueous solution of Compound (A) (t95); assay type: physicochemical; details: 37° C.
# Experimental: Certain epothilones including the preferred epothilone, Compound (A), are unstable in acidic aqueous environments and decompose, presumably by an acid catalyzed hydrolytic opening of the epoxide ring. For example, the time for 5% drug loss (t95) at 37° C. for an aqueous solution of Compound (A) is approximately 38 minutes at pH 7.4 but only about 0.2 minutes at pH 2.5. Thus, when epothilones of Formula (Ia) or (Ib), or a pharmaceutically acceptable salt, solvate, clathrate, hydrate, or prodrug thereof, are orally administered they decompose in the stomach of the patient such that they are either minimally absorbed or not absorbed by the gastrointestinal tract.
# [2] = Pharmacokinetics in mice (IV and oral); assay type: in vivo, female CDF
# Experimental: (§1) Plasma samples from pharmacokinetic/pharmacodynamic studies were analyzed for the concentration of Compound (A) using an LC/MS/MS (liquid chromatography/mass spectrometry/mass spectrometry) assay with a standard curve range of 5 to 20,000 ng/mL (10 to 40,000 nM) for studies in mice and 2 to 1000 ng/mL (4 to 2000 nM) for studies in rats and dogs. In pharmacodynamic studies, concentrations of Compound (A) were determined using the LC/MS/MS assay with a standard curve range of 5 to 20,000 ng/mL (10 to 40,000 nM) in mouse plasma. The LC/MS/MS assay was also used to determine the concentrations of Compound (B), a degradation product of Compound (A) formed in the stock/dosing solution or in vivo, in rat and dog plasma. The structure of Compound (B) is: [drawing 9]
# Compound (A) was administered intravenously (5 mg/kg) and orally (48 mg/kg) to female CDF, mice. For the IV route, Compound (A) was dissolved in 20% ethanol solution and was given as a bolus dose. For the oral route, solutions of Compound (A) were prepared as a 3:7 mixture of ethanol:phosphate buffered saline (0.25 M, pH 8.0) and administered by gavage. Plasma samples for determinating concentrations of Compound (A) were taken from 3 separate mice at 5, 15, and 45 min, and 2, 4, and 6 h after the IV dose, and at 15 and 45 min, and 2, 4, and 6 h after the oral dose.
# [3] = Excretion in bile duct cannulated rats; assay type: in vivo, Sprague Dawley rats; details: intraarterial 10 mg/kg or oral 20 mg/kg, 9 h
# Experimental: In another study, bile duct cannulated Sprague Dawley rats (n=2 per group) received a single intraterial (10 mg/kg) or oral (20 mg/kg) dose of Compound (A), and bile, urine, and plasma samples were collected over a period of 9 h after dose. There was negligible excretion of intact Compound (A) in the bile (C 1% of the dose). There was some detectable amount of Compound (A) in the urine, but actual concentrations were not quantified due to lack of stability data for Compound (A) in the urine. Several drug-related compounds in the urine and plasma were tentatively identified by LC/MS and included an isomer (M+0), and a hydrolysis product (M+18). In addition, a metabolite (M−2) was detected in the plasma.
# [4] = Pharmacokinetics in dogs, 10 min IV infusion; assay type: in vivo, male beagle dogs
# Experimental: as §1
# Male beagle dogs (n=3) were administered a 10 min IV infusion of 0.5 mg/kg of Compound (A) (given as a 10% ethanol solution). Plasma samples were taken over a period of 32 h after dose to determine the plasma concentrations of Compound (A). […] The T-HALF was estimated to be approximately 24 h.
# [5] = molecular target: CYP2C19 (Homo sapiens, UniProt P33261); test: Inhibition of recombinant human CYP2C19 (deethylation of 3-cyano-7-ethoxycoumarin); assay type: in vitro ADME; details: recombinant human CYP isoform
# Experimental: The ability of Compound (A) to inhibit the major human cytochrome P450s (CYPs) responsible for the metabolism of drugs was evaluated in vitro using recombinant human CYP isoforms. IC50 values for inhibition of deethylation of 3-cyano-7-ethoxycoumarin (CYP1A2, CYP2C9, CYP2C19, and CYP2D6) and for inhibition of dealkylation of benzoyl-resorufin (CYP3A4) were determined.
# [6] = Pharmacokinetics of oral and IV Compound A in cancer patients; assay type: in vivo
# Experimental: Patients with advanced malignancies were administered Compound A weekly as a 30-minute infusion (a course=3 intravenous weekly administrations). […] Serial plasma sampling was obtained on day 6 and day 1 of course 1 to assess pharmacokinetics by an LC/MS/MS. The LC/MS/MS assay was the same as used in Example 1.
# Following oral administration on day 6, 7 mL blood samples was collected into Becton Dickinson Vacutainer tubes with K3EDTA as anticoagulent (lavender-colored top) according to the following schedule (expressed as hours:minutes from the start of the oral administration): predose, 00:15, 00:30, 00:45, 01:00, 01:30, 02:00, 03:00, 04:00, 06:00, 08:00, 24:00, 48:00, and 72:00. Following IV administration on day 1, 7 mL blood samples were collected into Becton Dickinson Vacutainer tubes with K3EDTA as anticoagulent (lavender-colored top) according to the following schedule (expressed as hours:minutes from the start of the IV infusion): predose, 00:15, 00:30 (end-of infusion), 00:45, 01:00, 01:30, 02:00, 03:00, 04:00, 06:00, 08:00, 24:00, 48:00, and 72:00.
# Immediately after blood collection, the Vacutainer tubes were inverted several times to ensure mixing with the anticoagulant and then immediately placed on crushed ice. Within 30 minutes of collection, samples were centrifuged for 5 minutes at approximately 2000×g and 0 to 5 EC 5° C. The plasma was then transferred to separate pre-labeled screw-capped polypropylene tubes and stored at −70 EC −70° C. until bioanalysis. Plasma concentrations of Compound A were analyzed using the LC/MS/MS assay described in Example 1.
# The plasma concentration versus time data were analyzed using non-compartmental methods. The pharmacokinetic parameters determined for Compound A included the maximum observed plasma concentration (Cmax), time to reach Cmax (Tmax), area under the plasma concentration time curve from time zero to the time of last sampling time T(AUC (0−T)).
# [7] = 20 mg/m^2, oral solution with buffer
# [8] = 25 mg/m^2, oral solution with buffer
# [9] = 305 mg/m^2 as printed, oral solution with buffer
# CYP2C19, sequence (P33261 whole entry, canonical isoform): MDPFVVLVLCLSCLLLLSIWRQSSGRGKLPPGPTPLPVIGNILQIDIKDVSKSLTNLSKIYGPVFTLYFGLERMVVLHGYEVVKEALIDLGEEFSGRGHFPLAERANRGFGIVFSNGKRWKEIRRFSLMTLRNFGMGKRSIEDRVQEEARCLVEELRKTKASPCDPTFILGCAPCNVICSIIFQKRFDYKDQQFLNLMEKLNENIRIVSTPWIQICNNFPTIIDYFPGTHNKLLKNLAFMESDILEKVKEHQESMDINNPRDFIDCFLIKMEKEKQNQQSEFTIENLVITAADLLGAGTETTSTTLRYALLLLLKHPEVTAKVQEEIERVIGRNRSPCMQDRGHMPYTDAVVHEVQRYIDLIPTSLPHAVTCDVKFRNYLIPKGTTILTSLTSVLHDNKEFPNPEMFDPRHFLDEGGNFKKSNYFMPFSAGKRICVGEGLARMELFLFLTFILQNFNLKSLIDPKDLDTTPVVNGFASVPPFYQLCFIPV
smiles,measurement,setting,value
"C/C(=C\c1csc(C)n1)[C@@H]1C[C@@H]2O[C@]2(C)CCC[C@H](C)[C@H](O)[C@@H](C)C(=O)C(C)(C)[C@@H](O)CC(=O)N1 (relative stereo) [Compound (A), [1S-[1R*,3R*(E),7R*,10S*,11R*,12R*,16S*]]-7,11-dihydroxy 8,8,10,12,16-pentamethyl-3-[1-methyl-2-(2-methyl-4-thiazolyl)ethenyl-4-aza-17-oxobicyclo[14.1.0]heptadecane-5,9-dione]",time for 5% drug loss (t95),[1]; pH 2.5,about 0.2 minutes
same,time for 5% drug loss (t95),[1]; pH 7.4,approximately 38 minutes
same,steady-state volume of distribution (VSS),[2]; IV 5 mg/kg,6.3 L/kg
same,terminal elimination half-life (T-HALF),[2]; IV 5 mg/kg,approximately 3 h
same,CLT as percent of liver blood flow,"[2]; IV 5 mg/kg, liver blood flow 90 mL/min/kg",76%
same,systemic clearance or total body clearance (CLT),[2]; IV bolus 5 mg/kg,68 mL/min/kg
same,absolute oral bioavailability,[2]; oral 48 mg/kg vs IV 5 mg/kg,31%
same,peak plasma concentration (CMAX),"[2]; oral 48 mg/kg, ethanol:phosphate buffered saline 3:7",5983 ng/mL
same,excretion of intact Compound (A) in the bile,[3],< 1 % of the dose
same,CLT (mean),[4]; 10 min IV infusion 0.5 mg/kg,17.3 mL/min/kg
same,T-HALF,[4]; IV 0.5 mg/kg,approximately 24 h
same,mean VSS,[4]; IV 0.5 mg/kg,25.2 L/kg
same,CLT as percent of liver blood flow,"[4]; IV 0.5 mg/kg, liver blood flow 30.9 mL/min/kg",about 56%
same,"AUC, mean (SD)","[4]; preliminary IV pharmacokinetic study, 0.5 mg/kg",483 (34) h.ng/mL
same,inhibition of CYP2C19,[5],did not inhibit
same,"AUC(0-T), mean","[6]; 20 mg/m^2, IV",796 ng·h/mL
same,"TMAX, median","[6]; 20 mg/m^2, IV",15 min
same,"CMAX, mean","[6]; 20 mg/m^2, IV, N 3",251 ng/mL
same,"% F, mean",[6]; [7],43.5%
same,"AUC(0-T), mean",[6]; [7],404 ng·h/mL
same,"TMAX, median",[6]; [7],60 min
same,"CMAX, mean","[6]; 20 mg/m^2, oral solution with buffer, N 3",142 ng/mL
same,"AUC(0-T), mean","[6]; 25 mg/m^2, IV",848 ng·h/mL
same,"TMAX, median","[6]; 25 mg/m^2, IV",30 min
same,"CMAX, mean","[6]; 25 mg/m^2, IV, N 11",447 ng/mL
same,"% F, mean",[6]; [8],55.6%
same,"AUC(0-T), mean",[6]; [8],533 ng·h/mL
same,"TMAX, median",[6]; [8],30 min
same,"CMAX, mean","[6]; 25 mg/m^2, oral solution with buffer, N 11",180 ng/mL
same,"AUC(0-T), mean","[6]; 305 mg/m^2 as printed, IV",1155 ng·h/mL
same,"TMAX, median","[6]; 305 mg/m^2 as printed, IV",30 min
same,"CMAX, mean","[6]; 305 mg/m^2 as printed, IV, N 4",711 ng/mL
same,"% F, mean",[6]; [9],62.2%
same,"AUC(0-T), mean",[6]; [9],708 ng·h/mL
same,"TMAX, median",[6]; [9],30 min
same,"CMAX, mean","[6]; 305 mg/m^2 as printed, oral solution with buffer, N 4",274 ng/mL

# — patent USRE40387E1, “Pharmaceutical compositions, dosage forms and methods for oral administration of epothilones” (Bristol-Myers Squibb Company, priority 2001, dated 2008)
